Laboratory results published in patent publication US9439414B2, “Sperm diluent solution and method for artificial insemination using same” (HIROSHIMA UNIVERSITY, priority 2009, dated 2016).

Assays:
[1] = test system: pig sperm; test: Sperm motility by motility analyzer (CASA); type: cell-based; details: EGTA 0, 3, 6, 9 mM added to Modena solution (6.3 mM EDTA); 1, 3 or 6 hours
Protocol: Media having concentrations of EDTA of 0 mM, 3 mM, 6.3 mM and 12 mM were prepared. The 0-mM-EDTA medium and the 3-mM-EDTA medium were prepared by removing EDTA-2Na from Modena solution and adjusting the EDTA concentration to 0 mM and 3 mM, respectively. As the 6.3-mM-EDTA medium, Modena solution was used as it is. Further, the 12-mM-EDTA medium was prepared by adding EDTA-2Na to Modena solution to attain an EDTA concentration of 12 mM.
To each medium, frozen sperm were added after thawing as in Experimental Example 1, and the sperm were cultured. The culturing time was 1 hour, 3 hours or 6 hours.
After the culture, the sperm motility was calculated using a motility analyzer (computer-assisted sperm motility analysis (CASA) system). On a plate prewarmed to 38° C., 5 μl of the medium after the culture was placed, and the ratio of moving sperm was analyzed using a computer.
0-mM-EGTA medium, 3-mM-EGTA medium, 6-mM-EGTA medium and 9-mM-EGTA medium were prepared. As the 0-mM-EGTA medium, Modena solution was used as it is. Further, the 3-mM-EGTA medium, 6-mM-EGTA medium and 9-mM-EGTA medium were prepared by adding EGTA to Modena solution to attain EGTA concentrations of 3 mM, 6 mM and 9 mM, respectively, in the medium. Since addition of EGTA results in more acidic pH of the medium, NaOH was added to the medium to adjust pH to 7.0 to 7.1. […]

[2] = test system: pig sperm; test: Sperm acrosomal damage rate (FITC-peanut lectin staining); type: cell-based; details: EGTA 0, 3, 6, 9 mM in Modena solution
Protocol: 0-mM-EGTA medium, 3-mM-EGTA medium, 6-mM-EGTA medium and 9-mM-EGTA medium were prepared. As the 0-mM-EGTA medium, Modena solution was used as it is. Further, the 3-mM-EGTA medium, 6-mM-EGTA medium and 9-mM-EGTA medium were prepared by adding EGTA to Modena solution to attain EGTA concentrations of 3 mM, 6 mM and 9 mM, respectively, in the medium. Since addition of EGTA results in more acidic pH of the medium, NaOH was added to the medium to adjust pH to 7.0 to 7.1.
To each medium, frozen sperm were added after thawing as in Experimental Example 1, and the sperm was cultured. The culturing time was 1 hour, 3 hours or 6 hours.
The measurement of the sperm motility and detection of phosphorylation of tyrosine residues of the sperm proteins were carried out in the same manner as described above. The measurement of the sperm acrosomal damage rate was carried out as follows. On a slide glass, 5 μl of the medium was smeared, followed by air drying and 10 minutes of fixation with 99% methanol. After drying the methanol, marking was done with a liquid pen. FITC-peanut lectin was added to the smeared sperm (about 30 μl per sample), followed by 30 minutes of incubation at 37° C. in a moist atmosphere. Thereafter, the sperm were washed with PBS (5 minutes×3 times) and embedded in DAPI (VECTOR, VECTASHIELD with DAPI, H-1200) and then in manicure, followed by observation of the sperm.

[3] = test system: mother pigs and piglets; test: Health of mother pigs and piglets after artificial insemination with the cortisol-containing sperm diluent; type: in vivo, pig; details: 5 μg cortisol injected to the uterus
Protocol: Although the above adrenocortical hormone (a steroid hormone such as cortisol) is usually injected at a dose of 5 to 50 mg per individual for therapy of livestock, only 5 μg was injected to the uterus in the artificial insemination of the present Example. Thus, since this dose is about 1,000 to 10,000 times smaller than the dose in the cases of therapeutic use, it is thought that the meat of the mother pig and the fetuses in the uterus are not affected.

Row | deformed piglets after the delivery [3] | Structure (SMILES) | sperm motility (FIG. 3) [1] | sperm acrosomal damage rate (FIG. 5) [2]
1 |  | O=C(O)CN(CCOCCOCCN(CC(=O)O)CC(=O)O)CC(=O)O [EGTA, ethylene glycol Bis(2-aminoethyl)-N,N,N′,N′-tetraacetic acid] | high | low
2 | no deformed piglet was found | C[C@]12CCC(=O)C=C1CC[C@@H]1[C@@H]2[C@@H](O)C[C@@]2(C)[C@H]1CC[C@]2(O)C(=O)CO [cortisol] |  | 
